For one data set, the system named is HCV Replicon 1b. Nature of the data set: HCV inhibition assay, HCV replicon 1b (Clone A or ET-lunet cells; RT-PCR or luciferase reporter). Format: cell-based. As to conditions: Hepatitis C virus, 96 h, HCV replicon 1b; 4 days incubation; read-out: Replicon 1b potency EC90. The method in brief: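 Clone A (1500/well) or ET-lunet (3000/well) replicon cells treated with serially diluted compounds (0.5% DMSO, no G418) for 4 days at 37 °C. HCV RNA measured by one-step RT-PCR normalized to rRNA (ΔΔCt) or by luciferase luminescence versus DMSO controls; EC50/EC90 by curve fitting.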

Data set [1] can be described thus: Cell cytotoxicity assay (MTS), CC90 as reported in Table 1, cell line not stated. It is filed as cell-based. The note with it: human, cell line not given. The method in brief: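 Compounds, serially diluted from 100 μM, were incubated 8 days at 37° C with Huh7, HepG2 or BxPC3 (2×10^3 cells/well) or CEM (5×10^3 cells/well). Viability was read by MTS, 2 h, absorbance 490 nm. CC90 (90% inhibition) was taken against untreated cells.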

Experimental findings from patent US20120202794A1 (priority 2011, published 2012) are described below.

Turning to `CC(C)C[C@H]1C(=O)N[C@@H](c2ccccc2)CN1C(=O)[C@@H]1C[C@H]1c1ccc(C(C)(C)C)cc1` [Compound 312, (3S,6S)-4-((1R,2R)-2-(4-(tert-butyl)phenyl)cyclopropanecarbonyl)-3-isobutyl-6-phenylpiperazin-2-one], the 90% effect concentration (EC90) in the data set on HCV Replicon 1b is 1130 nM. This compound also yielded a CC90 at 8 days in data set [1] (MTS assay, 8 days incubation) greater than 10 µM.
As for `CC(C)C[C@H]1CN(C(=O)c2cc3c(s2)-c2ccccc2OC3)[C@@H](CC(C)C)C(=O)N1` [Compound 307, (3S,6S)-3,6-diisobutyl-4-(4H-thieno[3,2-c]chromene-2-carbonyl)piperazin-2-one], the concentration for an effect of 90% (EC90) in the data set on HCV Replicon 1b amounted to 4710 nM. In data set [1] (MTS assay, 8 days incubation), this compound yielded a CC90 at 8 days greater than 10 µM.
On the same counts, the results for `CC(C)C[C@H]1CN(C(=O)c2noc(-c3ccc(F)c(F)c3)c2F)[C@@H](CC(C)C)C(=O)N1` [Compound 394, (3S,6S)-4-(5-(3,4-difluorophenyl)-4-fluoroisoxazole-3-carbonyl)-3,6-diisobutyl-piperazin-2-one] are 660 nM and greater than 10 µM.
Take `CC(C)C[C@H]1C(=O)NC(C2CCOCC2)CN1C(=O)c1cc(-c2ccc(F)cc2)on1` (stereo partly drawn) [Compound 456, (3S)-4-(5-(4-fluorophenyl)isoxazole-3-carbonyl)-3-isobutyl-6-(tetrahydro-2H-pyran-4-yl)piperazin-2-one]: the EC90 in the data set with HCV Replicon 1b was 194 nM. Moreover, the CC90 at 8 days in data set [1] (MTS assay, 8 days incubation) is greater than 10 µM.
On the same counts, the results for `CC(C)C[C@H]1C(=O)N(C)[C@@H](c2ccccc2)CN1C(=O)c1cc(-c2ccc(F)cc2)on1` [Compound 321, (3S,6S)-4-(5-(4-fluorophenyl)isoxazole-3-carbonyl)-3-isobutyl-1-methyl-6-phenylpiperazin-2-one] are 6450 nM and greater than 10 µM.
For `CC(C)C[C@H]1CN(C(=O)c2cn(-c3ccc(F)cc3)cn2)[C@@H](CC(C)C)C(=O)N1` [Compound 103], in the data set on HCV Replicon 1b, the concentration for an effect of 90% (EC90) was 8640 nM. In addition, in data set [1], the CC90 at 8 days is greater than 10 µM.
As to `CC(C)[C@H]1C(=O)N[C@@H](c2ccccc2)CN1C(=O)c1noc(-c2ccc(F)cc2)n1` [Compound 403, (3S,6S)-4-(5-(4-fluorophenyl)-1,2,4-oxadiazole-3-carbonyl)-3-isopropyl-6-phenyl-piperazin-2-ono], in the data set with HCV Replicon 1b, the 90% effect concentration (EC90) was 270 nM. Also, in data set [1] (MTS assay, 8 days incubation), the CC90 at 8 days is greater than 10 µM.
On the same counts, the results for `COc1ccc2c(c1)CCc1c(C(=O)N3C[C@H](CC(C)C)NC(=O)[C@@H]3CC(C)C)noc1-2` [Compound 289, (3S,6S)-3,6-diisobutyl-4-(7-methoxy-4,5-dihydronaphtho[2,1-d]isoxazole-3-carbonyl)piperazin-2-one] are 5010 nM and greater than 10 µM.
As to `CC(C)C[C@H]1CN(C(=O)C#Cc2ccc(F)c(F)c2)[C@@H](CC(C)C)C(=O)N1` [Compound 116], in the data set on HCV Replicon 1b, the 90% effect concentration (EC90) worked out at 9650 nM. For the same compound, the CC90 at 8 days in data set [1] is greater than 10 µM.
On to `CC(C)C[C@H]1C(=O)N[C@@H](c2cnco2)CN1C(=O)[C@@H]1C[C@H]1c1ccccc1` [Compound 517, (3S,6R)-3-isobutyl-6-(oxazol-5-yl)-4-((1R,2R)-2-phenylcyclopropane-carbonyl)piperazin-2-one], for which, in the data set on HCV Replicon 1b, the 90% effect concentration (EC90) stood at 190 nM. For the same compound, the CC90 at 8 days in data set [1] (MTS assay, 8 days incubation) is greater than 10 µM.
As to `CC(C)C[C@H]1C(=O)N[C@@H](c2ccc(Cl)s2)CN1C(=O)c1cc(-c2ccc(F)cc2)on1` [Compound 488, (3S,6R)-6-(5-chlorothiophen-2-yl)-4-(5-(4-fluorophenyl)isoxazole-3-carbonyl)-3-isobutylpiperazin-2-one], the EC90 in the data set with HCV Replicon 1b worked out at 700 nM. Further, in data set [1] (MTS assay, 8 days incubation), the CC90 at 8 days is greater than 10 µM.
For the compound `CC(C)C[C@H]1C(=O)N[C@@H](C2CCCCC2)CN1C(=O)c1cc(-c2ccc(Cl)cc2)on1` [Compound 171], the EC90 in the data set on HCV Replicon 1b is 150 nM. The compound further came in with a CC90 at 8 days in data set [1] greater than 10 µM.
As to `C/C=C/[C@H]1CN(C(=O)c2cc(-c3ccc(F)cc3)no2)[C@@H](CC(C)C)C(=O)N1` [Compound 447, (3S,6S)-4-(3-(4-fluorophenyl)isoxazole-5-carbonyl)-3-isobutyl-6-((E)-prop-1-en-1-yl)piperazin-2-one], the EC90 in the data set on HCV Replicon 1b was 140 nM. This compound also displayed a CC90 at 8 days in data set [1] (MTS assay, 8 days incubation) greater than 10 µM.
As for `CC(C)C[C@H]1CN(C(=O)/C=C/c2ccc3c(c2)OCO3)[C@@H](CC(C)C)C(=O)N1` [Compound 90], the concentration for an effect of 90% (EC90) in the data set with HCV Replicon 1b worked out at 7720 nM. For the same compound, the CC90 at 8 days in data set [1] is greater than 10 µM.
For `CC(C)C[C@H]1C(=O)N[C@@H](C2CCCC2)CN1Cc1cc(-c2ccc(F)cc2)on1` [Compound 208, (3S,6S)-6-cyclopentyl-4-((5-(4-fluorophenyl)isoxazol-3-yl)methyl)-3-isobutylpiperazin-2-one] the same measures were 210 nM and greater than 10 µM.
For `CC(C)C[C@H]1C(=O)N[C@@H](c2ccccc2)CN1C(=O)c1noc(-c2ccc(F)c(F)c2)c1F` [Compound 390, (3S,6S)-4-(5-(3,4-difluorophenyl)-4-fluoroisoxazole-3-carbonyl)-3-isobutyl-6-phenylpiperazin-2-one], in the data set on HCV Replicon 1b, the EC90 worked out at 2050 nM. The CC90 at 8 days in data set [1] (MTS assay, 8 days incubation) is greater than 10 µM.
On to `CC(C)C[C@H]1CCN(C(=O)c2cc(-c3ccc(F)cc3)on2)[C@@H](CC(C)C)C(=O)N1` [Compound 411, (3S,7S)-4-(5-(4-fluorophenyl)isoxazole-3-carbonyl)-3,7-diisobutyl-1,4-diazepan-2-one], for which the EC90 in the data set with HCV Replicon 1b was greater than 10000 nM. Further, in data set [1] (MTS assay, 8 days incubation), the CC90 at 8 days is greater than 10 µM.
For `CC(C)CC1=CN(C(=O)c2cc(-c3ccc(F)cc3)on2)[C@@H](CC(C)C)C(=O)N1` [Compound 317, (S)-4-(5-(4-Fluorophenyl)isoxazole-3-carbonyl)-3,6-diisobutyl-3,4-dihydro-pyrazin-2(1H)-one] the same measures were 280 nM and greater than 10 µM.
On the same counts, the results for `CC(C)C[C@H]1C(=O)N[C@@H](c2ccccc2Cl)CN1C(=O)c1cc(-c2ccc(F)cc2)on1` [Compound 352, (3S,6S)-6-(2-chlorophenyl)-4-(5-(4-fluorophenyl)isoxazole-3-carbonyl)-3-isobutyl-piperazin-2-one] are 210 nM and greater than 10 µM.
Consider `CC(C)C[C@H]1C(=O)N[C@@H](C2CCCCC2)CN1C(=O)c1cc(-c2ccc(F)c(F)c2)on1` [Compound 185], for which, in the data set on HCV Replicon 1b, the concentration for an effect of 90% (EC90) was 610 nM. This compound also gave a CC90 at 8 days in data set [1] greater than 10 µM.
For `CC(C)C[C@H]1C(=O)N[C@@H](C2CCCC2)CN1C(=O)c1cc(-c2cccs2)on1` [Compound 174] the same measures were 250 nM and greater than 10 µM.
Regarding `CC(C)C[C@H]1C(=O)N[C@@H](C2CCCCC2)CN1C(=O)c1noc(-c2ccc(F)cc2)n1` [Compound 291, (3S,6S)-6-cyclohexyl-4-(5-(4-fluorophenyl)-1,2,4-oxadiazole-3-carbonyl)-3-isobutylpiperazin-2-one], the EC90 with HCV Replicon 1b came to 330 nM. For the same compound, the CC90 at 8 days in data set [1] (MTS assay, 8 days incubation) is greater than 10 µM.
For the compound `CC(C)C[C@H]1C(=O)N[C@@H](CC2CC2)CN1C(=O)c1cc(-c2cccs2)on1` [Compound 168], the EC90 in the data set on HCV Replicon 1b is 900 nM. Further, the CC90 at 8 days in data set [1] was greater than 10 µM.
With `CCc1ccc(CN2C[C@H](CC(C)C)NC(=O)[C@@H]2CC(C)C)cc1` [Compound 225, (3S,6S)-4-(4-Ethyl-benzyl)-3,6-diisobutyl-piperazin-2-one], the 90% effect concentration (EC90) with HCV Replicon 1b was 3510 nM. The compound further had a CC90 at 8 days in data set [1] greater than 10 µM.
For `CSC[C@H]1CN(C(=O)c2cc(-c3ccc(Cl)cc3)on2)[C@@H](CC(C)C)C(=O)N1` [Compound 182] the same measures were 550 nM and greater than 10 µM.
With `CC(C)C[C@H]1C(=O)N[C@@H](C2CCCCC2)CN1C(=O)c1cc(-c2cccs2)on1` [Compound 172], the EC90 with HCV Replicon 1b was 410 nM. In data set [1], this compound gave a CC90 at 8 days greater than 10 µM.
As to `CC(C)C[C@H]1C(=O)N[C@@H](C(C)(C)C)CN1Cc1cc(-c2ccc(F)cc2)on1` [Compound 205, (3S,6S)-6-(tert-butyl)-4-((5-(4-fluorophenyl)isoxazol-3-yl)methyl)-3-isobutylpiperazin-2-one], the concentration for an effect of 90% (EC90) with HCV Replicon 1b stood at 8900 nM. The same compound yielded a CC90 at 8 days in data set [1] greater than 10 µM.
On to `CC(C)C[C@H]1CN(C(=O)/C=C/c2ccccc2)[C@@H](CC(C)C)C(=O)N1` [Compound 77], for which the EC90 in the data set with HCV Replicon 1b is 3240 nM. Also, in data set [1], the CC90 at 8 days is greater than 10 µM.
On the same counts, the results for `CC(C)C[C@H]1CN(C(=O)c2cc(-c3ccc([N+](=O)[O-])cc3)on2)[C@@H](CC(C)C)C(=O)N1` [Compound 155] are 2600 nM and greater than 10 µM.
For `CSC[C@H]1CN(C(=O)c2cc(-c3ccc(F)cc3)no2)[C@@H](CC(C)C)C(=O)N1` [Compound 147] the same measures were 1270 nM and greater than 10 µM.
Consider `CC(C)C[C@H]1C(=O)N[C@@H](C2CCCC2)CN1C(=O)c1noc(-c2ccc(F)c(F)c2)c1F` [Compound 395, (3S,6S)-6-cyclopentyl-4-(5-(3,4-difluorophenyl)-4-fluoroisoxazole-3-carbonyl)-3-isobutylpiperazin-2-one], for which the EC90 in the data set with HCV Replicon 1b came out at 1020 nM. Also, in data set [1] (MTS assay, 8 days incubation), the CC90 at 8 days was greater than 10 µM.
For `CC(C)C[C@H]1C(=O)N[C@@H](c2cnco2)CN1C(=O)c1cc(-c2ccc(F)cc2)no1` [Compound 519, (3S,6R)-4-(3-(4-fluorophenyl)isoxazole-5-carbonyl)-3-isobutyl-6-(oxazol-5-yl)piperazin-2-one] the same measures were 110 nM and greater than 10 µM.
As for `CC(C)C[C@H]1C(=O)N[C@@H](c2ccccc2Cl)CN1C(=O)c1noc(-c2ccc(F)cc2)n1` [Compound 371, (3S,6S)-6-(2-chlorophenyl)-4-(5-(4-fluorophenyl)-1,2,4-oxadiazole-3-carbonyl)-3-isobutylpiperazin-2-one], the EC90 in the data set with HCV Replicon 1b amounted to 470 nM. This compound also showed a CC90 at 8 days in data set [1] (MTS assay, 8 days incubation) greater than 10 µM.
For `CC(C)C[C@H]1CN(C(=O)C#Cc2ccc(F)cc2F)[C@@H](CC(C)C)C(=O)N1` [Compound 117], the concentration for an effect of 90% (EC90) in the data set on HCV Replicon 1b came to 2660 nM. This compound showed a CC90 at 8 days in data set [1] greater than 10 µM.

Usually EC90 stands for the point of the concentration-response curve where the effect stands at 90%.
